Where “and” joins values, the source holds several entries; their conditions need not be identical. Equal values may be shown once.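 Interpolation was linear, between the two tested concentrations surrounding the appropriate level; five concentrations were tested over 48 hours in 96-well plates. Definition used: TGI = concentration required for complete inhibition of growth.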
Experiments:
Assay in all cases: NCI anticancer screen, dose series, 48 h
HCC-2998 colon = tested on: HCC-2998 colon
HCT-116 colon = tested on: HCT-116 colon
HL-60(TB) leukemia = tested on: HL-60(TB) leukemia
IGROV1 ovarian = tested on: IGROV1 ovarian
K-562 leukemia = tested on: K-562 leukemia
M14 melanoma = tested on: M14 melanoma
MDA-MB-231 breast = tested on: MDA-MB-231 breast
OVCAR-3 ovarian = tested on: OVCAR-3 ovarian
OVCAR-5 ovarian = tested on: OVCAR-5 ovarian
OVCAR-8 ovarian = tested on: OVCAR-8 ovarian
PC-3 prostate = tested on: PC-3 prostate
SK-MEL-28 melanoma = tested on: SK-MEL-28 melanoma
U251 CNS = tested on: U251 CNS
UACC-257 melanoma = tested on: UACC-257 melanoma

Compound | TGI (HCC-2998 colon) | TGI (HCT-116 colon) | TGI (HL-60(TB) leukemia) | TGI (IGROV1 ovarian) | TGI (K-562 leukemia) | TGI (M14 melanoma) | TGI (MDA-MB-231 breast) | TGI (OVCAR-3 ovarian) | TGI (OVCAR-5 ovarian) | TGI (OVCAR-8 ovarian) | TGI (PC-3 prostate) | TGI (SK-MEL-28 melanoma) | TGI (U251 CNS) | TGI (UACC-257 melanoma)
N/N=C(\C(=O)Nc1ccc(Cl)cc1Cl)C(c1cnc2ccccc2n1)[N+](=O)[O-] (centres undefined) | > 100 µM | > 100 µM | > 100 µM | > 100 µM | > 100 µM | > 100 µM | > 100 µM | > 100 µM | > 100 µM | > 100 µM | > 100 µM | > 100 µM | > 100 µM | > 100 µM
CC(=O)Nc1cc2c3c(c1)CCCN3CCC2 | > 100 µM | > 100 µM | > 100 µM | > 100 µM | > 100 µM | > 100 µM | > 100 µM | > 100 µM | > 100 µM | > 100 µM | > 100 µM | > 100 µM | > 100 µM | > 100 µM
CC(C)NC(=O)OCc1c(COC(=O)NC(C)C)c(-c2cc[n+](COC(=O)C(C)(C)C)cc2)n2c1CCC2 | > 100 µM | > 100 µM | > 100 µM | > 100 µM | > 100 µM | > 100 µM | > 100 µM | > 100 µM | > 100 µM | > 100 µM | > 100 µM | > 100 µM | > 100 µM | > 100 µM
COc1cccc2c1OC(c1ccc(C#N)cc1)C([N+](=O)[O-])=C2 (centres undefined) | 3.15 µM | 2.8 µM | 5.62 µM | 3.76 µM | > 100 µM | 3.18 µM | 2.92 µM | 4.6 µM | 3.72 µM | 5.28 µM | 4.13 µM | 5.93 µM | 3.56 µM | 2.68 µM
c1ccc([P+](Cc2ccccc2C[P+](c2ccccc2)(c2ccccc2)c2ccccc2)(c2ccccc2)c2ccccc2)cc1 | > 100 µM | > 100 µM | > 100 µM | > 100 µM | > 100 µM | > 100 µM | > 100 µM | > 100 µM | > 100 µM | > 100 µM | > 100 µM | > 100 µM | > 100 µM | > 100 µM
CCCCCCOc1ccc(C(=O)NO)cc1 | 28.3 µM | 21.5 µM | 14 µM | 23.2 µM | 57.7 µM | 34 µM | 21.9 µM | 28.6 µM | 40.4 µM | 31.6 µM | 35.2 µM | 43.9 µM | 28.9 µM | > 91.5 µM
COCCCNC(=O)C1=C(C)NC(C)=C(C(=O)NCCCOC)C1 | > 100 µM | > 100 µM | > 100 µM | 26.9 µM | > 100 µM | > 100 µM | > 100 µM | > 100 µM | > 100 µM | > 100 µM | > 100 µM | > 100 µM | > 100 µM | > 100 µM
Cc1ccc(Nc2c(C#N)[n+]([O-])c3cc(Cl)ccc3[n+]2[O-])cc1 | > 100 µM | > 100 µM | 21.1 µM | > 100 µM | > 100 µM | > 100 µM | > 100 µM | > 42.4 µM | > 100 µM | > 100 µM | > 100 µM | > 100 µM | > 100 µM | > 100 µM
COC(=O)C1OC(O[C@H]2CC[C@]3(C)[C@H]4CC=C5[C@@H]6CC(C)(C)CC[C@]6(C(=O)OC6OCC(O)C(O)C6OC6OC(C)C(OC7OCC(O)C(OC8OCC(O)C(O)C8O)C7O)C(OC7OCC(O)C(O)C7O)C6O)CC[C@@]5(C)[C@]4(C)CC[C@H]3C2(C)C)C(O)C(OC2OCC(O)C(O)C2O)C1O (some centres undefined) | 3.13 µM and 3.37 µM | > 100 µM and 23.3 µM | 4.36 µM and 5.23 µM | > 100 µM and 24.9 µM | 14.9 µM and 19.1 µM | 3.7 µM and 5.19 µM | 8.81 µM and 13.5 µM | > 100 µM and 45.9 µM | 22.5 µM and 15.8 µM | > 100 µM and 23.3 µM | 18.9 µM and 16.4 µM | 4.02 µM and 6.16 µM | > 100 µM and 20.6 µM | 8.58 µM and 10.8 µM
CCCCC(Sc1cc(Cl)c(C)cc1S(=O)(=O)Nc1n[nH]c(N)n1)C(=O)OC (centres undefined) | > 10 µM | > 10 µM | > 10 µM | > 10 µM | > 10 µM | > 10 µM | > 10 µM | > 10 µM | > 10 µM | > 10 µM | > 10 µM | > 10 µM | > 10 µM | > 10 µM
CN(NC(=O)c1cccs1)C1=NCCCCN1 | > 100 µM | > 100 µM | > 100 µM | > 100 µM | > 100 µM | > 100 µM | > 100 µM | > 100 µM | > 100 µM | > 100 µM | > 100 µM | > 100 µM | > 100 µM | > 100 µM
COc1cc2cccc(N)c2cc1OC | > 100 µM | > 100 µM | > 100 µM | > 100 µM | > 100 µM | > 100 µM | > 100 µM | > 100 µM | > 100 µM | > 100 µM | > 100 µM | > 100 µM | > 100 µM | > 100 µM
CC1Oc2c(c(=O)oc3ccccc23)[C@@]1(C)CC1C[C@H](C)C(=O)O1 (some centres undefined) | 56.2 µM | 28.4 µM | > 100 µM | > 100 µM | 66 µM | 39.6 µM | > 100 µM | 45.3 µM | > 100 µM | > 100 µM | > 100 µM | 38.7 µM | > 100 µM | > 100 µM
O=C(Nc1ccccc1)N(C1=NCC(CI)S1)c1ccc(F)cc1F (centres undefined) | > 100 µM | > 100 µM | 48 µM | 52 µM | > 100 µM | > 100 µM | 78.4 µM | > 100 µM | > 100 µM | > 100 µM | > 100 µM | 83.4 µM | > 100 µM | 84 µM
CCCCCCCCCCCCCCCCOCC(Cl)COP(=O)(O)OP(=O)(O)OCC1OC(n2cc(C)c(=O)[nH]c2=O)CC1O (centres undefined) | > 100 µM | > 100 µM | > 100 µM | > 100 µM | > 100 µM | > 100 µM | > 100 µM | > 100 µM | > 100 µM | > 100 µM | 62.9 µM | > 100 µM | > 100 µM | > 100 µM
NCCN1C(=O)CN=C(c2ccc(Cl)cc2)c2cc(Cl)ccc21 | 31.8 µM | 30.1 µM | 37.7 µM | 27.1 µM | 34.8 µM | 30.3 µM | 30.5 µM | 29.3 µM | 30.9 µM | 32.2 µM | 30.1 µM | > 100 µM | 31.5 µM | 34.9 µM
